The values below come from patent US9457087B2, “Stable crystal modifications of DOTAP chloride” (Merck Patent GmbH, priority 2004, dated 2016).

Data set [1] is described as follows: Storage stability of crystalline DOTAP chlorides (HPLC purity and content). The format is physicochemical. The settings on record: 25° C., 60% relative humidity, exclusion of air. Here is the method:
In order to determine the stability of crystalline DOTAP chlorides, the substances are stored together with comparative samples at 25° C. and 60% relative humidity with exclusion of air. The remaining content of DOTAP chloride is measured at periodic intervals and quoted in comparison to the initial value.
The purity and content of DOTAP chloride are determined by means of HPLC.

Data set [2] is described as follows: DSC principal phase transition temperatures of multilamellar liposomes in water. In kind it is physicochemical. The settings on record: heating cycles, lipid 0.1 g/ml, 1° C./min. How it is done:
Differential scanning caliometry (DSC) measurements are carried out on multilamellar liposomes in water. Liposomes are prepared by the thin-film method from the calculated amounts of racemic or enantiomerically pure DOTAP chloride. The lipid concentration here is in each case 0.1 g/ml. Suitable amounts of these dispersions are then introduced into sealable aluminium crucibles and measured using a 204 Phoenix calorimeter (Netzsch, Seib, Germany). In each case, three successive heating/cooling runs from −50° C. to +20° C. are carried out at 1° C./min.
For all three DOTAP chloride variants, phase transition temperatures below 0° C. are found. For the cooling cycles, this is in each case at −23° C. to −24° C. Differences between racemic and enantiomerically pure DOTAP chloride are in each case evident in the heating cycles. […] (see FIG. 6).

The nature of data set [3]: Solubility in acetonitrile. The format is physicochemical. Particulars: room temperature.
Data set [4] is described as follows: Hygroscopicity at normal atmospheric humidity. The format is physicochemical. Particulars: normal atmospheric humidity levels.
For data set [5] the following is noted: storage under protective gas at −20° C.; guaranteed by manufacturer; cited from earlier work.

With `CCCCCCCC/C=C\CCCCCCCC(=O)OCC(C[N+](C)(C)C)OC(=O)CCCCCCC/C=C\CCCCCCCC.[Cl-]` (racemic) [(R,S)-DOTAP chloride crystalline type I, N,N,N-trimethyl-2,3-bis[[(9Z)-1-oxo-9-octadecenyl]oxy]-1-propanaminium chloride], the “% by weight (content of DOTAP chloride)” value in data set [1] (exposure time 0 months) was determined as 98.6%; in data set [1] (exposure time 1 month), 97.%; in data set [1] (exposure time 2 months), 97.9%; in data set [1] (exposure time 3 months), 97.2%; in data set [1] (exposure time 6 months) it was 98.2%; in data set [1] (exposure time 12 months), 98.7%. The “Area-% (HPLC purity)” value in data set [1] (exposure time 0 months) stood at 100%; in data set [1] (exposure time 1 month), 100.0%; in data set [1] (exposure time 2 months) it was 100.0%; in data set [1] (exposure time 3 months), 100.0%; in data set [1] (exposure time 6 months), 100.0%; in data set [1] (exposure time 12 months) it was 100.0%.

As to `CCCCCCCC/C=C\CCCCCCCC(=O)OC[C@@H](C[N+](C)(C)C)OC(=O)CCCCCCC/C=C\CCCCCCCC.[Cl-]` [(2R)-DOTAP chloride], in data set [2], the “endothermic phase transition temperature” value was “around −12.5 °C”.

As to `CCCCCCCC/C=C\CCCCCCCC(=O)OCC(C[N+](C)(C)C)OC(=O)CCCCCCC/C=C\CCCCCCCC.[Cl-]` (racemic) [racemate, N,N,N-trimethyl-2,3-bis[[(9Z)-1-oxo-9-octadecenyl]oxy]-1-propanaminium chloride], the “endothermic phase transition temperature” value in data set [2] is −17.5 °C. Further, in data set [3], the solubility in acetonitrile entry was “virtually insoluble”.

For `CCCCCCCC/C=C\CCCCCCCC(=O)OCC(C[N+](C)(C)C)OC(=O)CCCCCCC/C=C\CCCCCCCC.[Cl-]` (stereo not drawn) [amorphous DOTAP chloride], the hygroscopicity result in data set [4] is “extremely hygroscopic”. The shelf life result in data set [5] is “about 6 months”.

`CCCCCCCC/C=C\CCCCCCCC(=O)OC[C@H](C[N+](C)(C)C)OC(=O)CCCCCCC/C=C\CCCCCCCC.[Cl-]` [(2S)-DOTAP]: in data set [2], the “endothermic phase transition temperature” value was “around −12.5 °C”.
